Assay results taken from US20190110476A1, “NOVEL ISOTHIAZOLAMIDES, PROCESSES FOR THEIR PREPARATION AND THEIR USE AS FUNGICIDES” (priority 2014, published 2019).
Marks after values point to notes of the source that are not given here.

Test: Measurement of LogP values by HPLC on reversed phase columns (EEC directive 79/831 Annex V.A8)
Assay type: physicochemical
Protocol: The abbreviations and numerations of the substituent positions used in the context of the present invention and in the following Tables are explained in detail in the section Examples hereinafter. Also, the LogP values indicated in the following Tables are explained in detail in the section Examples hereinafter. In case LogP values for different diastereoisomers of a specific compound are […], said LogP values are […] by a “+”. […] Measurement of LogP values was performed according to EEC directive 79/831 Annex V.A8 by HPLC (High Performance Liquid Chromatography) on reversed phase columns with the following methods: […] Lambda-max-values were determined using UV-spectra from 200 nm to 400 nm and the peak values of the chromatographic signals
In the case of `C[C@H](NC(=O)c1snc(N)c1Cl)C1CCCCC1` [I-003], the LogP is reported as 2.50[a].
For `Nc1nsc(C(=O)NCc2ccccc2)c1Cl` [I-004], the LogP was 1.69[a].
In the case of `Nc1cc(C(=O)NCC2CCCCC2)sn1` [I-005], the LogP is reported as 1.92[a].
For `C[C@H](NC(=O)c1cc(N)ns1)C1CCCCC1` [I-006], the LogP was 2.09[a].
With `Nc1cc(C(=O)NC2CCCCC2)sn1` [I-007] the LogP was 1.49[a].
For `Nc1cc(C(=O)NCc2ccccc2)sn1` [I-008], the LogP was 1.32[a].
For `Nc1nsc(C(=O)NCc2ccccc2Cl)c1Cl` [I-009], the LogP was 2.12[a].
For `Nc1nsc(C(=O)NCC2CCCOC2)c1Cl` (centres unmarked) [I-010], the LogP was 1.07[a].
With `Nc1nsc(C(=O)NCC2CCOC2)c1Cl` (centres unmarked) [I-011] the LogP was 0.73[a].
In the case of `Nc1nsc(C(=O)NCC2CCOCC2)c1Cl` [I-012], the LogP is reported as 0.90[a].
With `Nc1nsc(C(=O)NCC2CCCO2)c1Cl` (centres unmarked) [I-013] the LogP was 1.02[a].
For `Nc1nsc(C(=O)NCC2CCCCO2)c1Cl` (centres unmarked) [I-014], the LogP was 1.47[a].
For `Nc1nsc(C(=O)NCc2cc(F)ccc2F)c1Cl` [I-015], the LogP was 1.88[a].
For `Nc1nsc(C(=O)NCc2ccc(Cl)cc2Cl)c1Cl` [I-018], the LogP was 2.62[a].
For `Nc1nsc(C(=O)NCc2cccc(Cl)c2Cl)c1Cl` [I-019], the LogP was 2.49[a].
With `Nc1nsc(C(=O)NCc2ccc(Cl)cc2)c1Cl` [I-020] the LogP was 2.16[a].
With `Nc1nsc(C(=O)NCc2cccc(Cl)c2)c1Cl` [I-021] the LogP was 2.15[a].
With `COc1cccc(CNC(=O)c2snc(N)c2Cl)c1` [I-022] the LogP was 1.75[a].
With `Nc1nsc(C(=O)NC2(c3ccc(F)cc3)CC2)c1Cl` [I-023] the LogP was 2.02[a].
With `Nc1nsc(C(=O)NCc2cc(F)cc(F)c2)c1Cl` [I-024] the LogP was 2.11[a].
With `Nc1nsc(C(=O)NCc2ccc(F)cc2)c1Cl` [I-025] the LogP was 1.83[a].
With `Nc1nsc(C(=O)NCc2cccc(F)c2)c1Cl` [I-026] the LogP was 1.84[a].
With `Nc1nsc(C(=O)NCc2cc(Cl)cc(Cl)c2)c1Cl` [I-027] the LogP was 2.63[a].
In the case of `Nc1cc(C(=O)NCc2ccc(Cl)cc2)sn1` [I-028], the LogP is reported as 1.75[a].
With `Nc1cc(C(=O)NCc2ccc(F)cc2)sn1` [I-029] the LogP was 1.27[a].
For `Nc1cc(C(=O)NCc2cc(F)ccc2F)sn1` [I-030], the LogP was 1.49[a].
With `Nc1cc(C(=O)NCc2ccc(F)cc2F)sn1` [I-031] the LogP was 1.56[a].
With `Cn1cc(CNC(=O)c2snc(N)c2Cl)cn1` [I-033] the LogP was 0.59[a].
In the case of `Cc1nn(C)cc1CNC(=O)c1snc(N)c1Cl` [I-034], the LogP is reported as 0.76[a].
In the case of `Nc1nsc(C(=O)NCc2cccnc2Cl)c1Cl` [I-036], the LogP is reported as 1.22[a].
With `Nc1nsc(C(=O)NCc2cncc(F)c2)c1Cl` [I-037] the LogP was 0.92[a].
For `Nc1nsc(C(=O)NCc2ccnc(F)c2)c1Cl` [I-038], the LogP was 1.04[a].
With `Cc1ccnc(CNC(=O)c2snc(N)c2Cl)n1` [I-039] the LogP was 0.83[a].
With `C[C@H](NC(=O)c1snc(NCc2ccccc2)c1Cl)C1CCCCC1` [I-040] the LogP was 4.74[a].
For `Cc1c(N)nsc1C(=O)NCc1ccc(F)cc1F` [I-041], the LogP was 1.64[a].
In the case of `Cc1c(N)nsc1C(=O)NCC1CCCCC1` [I-042], the LogP is reported as 2.01[a].
For `COc1ccc(CNc2nsc(C(=O)NCc3ccccc3F)c2Cl)cc1` [I-043], the LogP was 3.46[a].
In the case of `COc1ccc(CNc2nsc(C(=O)NCC3CCCC3)c2Cl)cc1` [I-044], the LogP is reported as 4.04[a].
For `COc1ccc(CNc2nsc(C(=O)NCC3CCCCCC3)c2Cl)cc1` [I-045], the LogP was 4.69[a].
In the case of `O=C(NC1CCCC2CCCCC21)c1snc(NCc2ccccc2)c1Cl` (centres unmarked) [I-046], the LogP is reported as 5.23[a].
In the case of `O=C(NC1CCCC2CCCCC21)c1snc(NCc2ccccc2)c1NCc1ccccc1` (centres unmarked) [I-047], the LogP is reported as 5.65[a].
In the case of `CC(C)(NC(=O)c1snc(NCc2ccccc2)c1Cl)C1CCCCC1` [I-048], the LogP is reported as 5.35[a].
With `COc1ccc(CNC(=O)c2snc(N)c2C)cc1` [I-049] the LogP was 1.42[a].
For `Cc1c(N)nsc1C(=O)NCc1ccc(F)cc1` [I-050], the LogP was 1.52[a].
In the case of `Cc1c(N)nsc1C(=O)NCc1ccc(Cl)cc1` [I-051], the LogP is reported as 1.86[a].
With `COc1ccc(CNC(=O)c2cc(N)ns2)cc1` [I-052] the LogP was 1.28[a].
For `Nc1nsc(C(=O)N(Cc2ccc(F)cc2F)C2CC2)c1Cl` [I-053], the LogP was 2.62[a].
In the case of `Nc1nsc(C(=O)NCC2CCCCCC2)c1Cl` [I-054], the LogP is reported as 2.86[a].
With `COc1ccc(CNc2nsc(C(=O)NCC3CCCCC3(C)C)c2Cl)cc1` (centres unmarked) [I-056] the LogP was 4.95[a].
For `O=C(NCc1ccccc1F)c1snc(NC2CC2)c1Cl` [I-057], the LogP was 2.66[a].
In the case of `C#CCNc1nsc(C(=O)NCc2ccccc2F)c1Cl` [I-058], the LogP is reported as 2.54[a].
For `O=C(NCc1ccccc1F)c1snc(Nc2ccc(F)cc2)c1Cl` [I-059], the LogP was 3.68[a].
For `COc1ccc(Nc2nsc(C(=O)NCc3ccccc3F)c2Cl)cc1` [I-060], the LogP was 3.46[a].
For `C[C@H](NC(=O)c1snc(NC2CC2)c1Cl)C1CCCCC1` [I-061], the LogP was 3.75[a].
In the case of `C#CCNc1nsc(C(=O)N[C@@H](C)C2CCCCC2)c1Cl` [I-062], the LogP is reported as 3.56[a].
With `C[C@H](NC(=O)c1snc(Nc2ccc(F)cc2)c1Cl)C1CCCCC1` [I-063] the LogP was 4.81[a].
With `C[C@H](NC(=O)c1snc(Nc2ccccc2)c1Cl)C1CCCCC1` [I-064] the LogP was 4.78[a].
For `COc1ccc(CNc2nsc(C(=O)N[C@@H](C)C3CCCCC3)c2Cl)cc1` [I-065], the LogP was 4.66[a].
For `C=CCNc1nsc(C(=O)N[C@@H](C)C2CCCCC2)c1Cl` [I-066], the LogP was 4.02[a].
With `O=C(NCc1ccccc1F)c1snc(Nc2ccccc2)c1Cl` [I-067] the LogP was 3.63[a].
With `COc1ccc(Nc2nsc(C(=O)N[C@@H](C)C3CCCCC3)c2Cl)cc1` [I-068] the LogP was 4.59[a].
With `O=C(NCc1ccccc1F)c1snc(NCc2ccccc2)c1Cl` [I-069] the LogP was 3.56[a].
In the case of `COc1ccc(CNc2nsc(C(=O)N[C@H](C)C3CCCCC3)c2Cl)cc1` [I-070], the LogP is reported as 4.56[a].
For `C=CCNc1nsc(C(=O)NCc2ccccc2F)c1Cl` [I-071], the LogP was 2.89[a].
With `COc1ccc(CN(C(=O)C(=O)N[C@H](C)C2CCCCC2)c2nsc(C(=O)N[C@H](C)C3CCCCC3)c2Cl)cc1` [I-072] the LogP was 4.54[a].
For `Nc1nsc(C(=O)NCC2CCCC2)c1Cl` [I-073], the LogP was 2.15[a].
With `COc1ccc(CNc2nsc(C(=O)NC3CCCCC3(C)C)c2Cl)cc1` (centres unmarked) [I-075] the LogP was 4.64[a].
In the case of `COc1ccc(CNc2nsc(C(=O)NCC3C(C)CCCC3(C)C)c2Cl)cc1` (centres unmarked) [I-076], the LogP is reported as 5.48[a].
With `C[C@@H](NC(=O)c1snc(N)c1Cl)C1CCCCC1` [I-077] the LogP was 2.78[a].
In the case of `COc1ccc(CNc2nsc(C(=O)NCC3CC=CCC3)c2Cl)cc1` (centres unmarked) [I-078], the LogP is reported as 3.90[a].
In the case of `COc1ccc(CNc2nsc(C(=O)NCC3(C)CCCCC3)c2Cl)cc1` [I-079], the LogP is reported as 4.69[a].
With `CC1(C)CCCCC1CNC(=O)c1snc(N)c1Cl` (centres unmarked) [I-080] the LogP was 3.05[a].
With `CC1CCCC(C)(C)C1CN(C(=O)c1snc(N)c1Cl)C1CC1` (centres unmarked) [I-081] the LogP was 4.08[a].
For `CC1(C)CCCCC1NC(=O)c1snc(N)c1Cl` (centres unmarked) [I-082], the LogP was 2.66[a].
In the case of `CC1CCCC(C)(C)C1CNC(=O)c1snc(N)c1Cl` (centres unmarked) [I-083], the LogP is reported as 3.54[a].
For `COc1ccc(CNc2nsc(C(=O)NCC3=CCCCC3)c2Cl)cc1` [I-084], the LogP was 4.02[a].
For `Nc1nsc(C(=O)NCC2CC=CCC2)c1Cl` (centres unmarked) [I-085], the LogP was 2.14[a].
For `CC1(CNC(=O)c2snc(N)c2Cl)CCCCC1` [I-086], the LogP was 2.84[a].
With `COc1ccc(CN(C)c2nsc(C(=O)N[C@@H](C)C3CCCCC3)c2Cl)cc1` [I-087] the LogP was 5.51[a].
In the case of `COc1ccc(CN(C)c2nsc(C(=O)NCc3ccccc3F)c2Cl)cc1` [I-088], the LogP is reported as 4.21[a].
For `Nc1nsc(C(=O)NCC2=CCCCC2)c1Cl` [I-089], the LogP was 2.30[a].
In the case of `C[C@H](NC(=O)c1snc(NC(=O)C2CC2)c1Cl)C1CCCCC1` [I-090], the LogP is reported as 2.99[a].
In the case of `C[C@H](NC(=O)c1snc(NC(=O)c2ccccc2)c1Cl)C1CCCCC1` [I-091], the LogP is reported as 3.64[a].
With `O=C(NCc1ccccc1F)c1snc(NC(=O)C2CC2)c1Cl` [I-093] the LogP was 2.12[a].
For `CC(=O)N(C(C)=O)c1nsc(C(=O)N[C@@H](C)C2CCCCC2)c1Cl` [I-094], the LogP was 3.73[a].
In the case of `CC(=O)Nc1nsc(C(=O)N[C@@H](C)C2CCCCC2)c1Cl` [I-097], the LogP is reported as 2.51[a].
For `COc1ccc(CNc2nsc(C(=O)NCC3CCCCC3)c2Cl)cc1` [I-098], the LogP was 4.20[a].
In the case of `COc1ccc(CNC(=O)c2cc(N)ns2)cn1` [I-099], the LogP is reported as 0.86[a].
For `CC(=O)Nc1nsc(C(=O)NCc2ccccc2F)c1Cl` [I-100], the LogP was 1.70[a].
With `CC(=O)N(C(C)=O)c1nsc(C(=O)NCc2ccccc2F)c1Cl` [I-101] the LogP was 2.64[a].
With `COc1ccc(CNC(=O)c2snc(NCc3ccc(OC)cc3)c2Cl)cc1` [I-102] the LogP was 3.46[a].
For `C[C@H](NC(=O)c1snc(N(S(C)(=O)=O)S(C)(=O)=O)c1Cl)C1CCCCC1` [I-103], the LogP was 3.76[a].
For `Cc1c(N)nsc1C(=O)NCc1ccc(C(F)(F)F)cc1F` [I-104], the LogP was 2.18[a].
For `COc1ccc(CNc2nsc(C(=O)NCC3(O)CCCCC3)c2Cl)cc1` [I-105], the LogP was 3.09[a].
In the case of `COc1ccc(CNc2nsc(C(=O)NCC3CCCC(C(F)(F)F)C3)c2Cl)cc1` (centres unmarked) [I-106], the LogP is reported as 4.33[a].
For `COc1ccc(CNc2nsc(C(=O)NCC3CCC(C(F)(F)F)CC3)c2Cl)cc1` (centres unmarked) [I-107], the LogP was 4.30[a].
For `COC(=O)Nc1nsc(C(=O)N[C@@H](C)C2CCCCC2)c1Cl` [I-108], the LogP was 2.84[a].
In the case of `CCC(=O)Nc1nsc(C(=O)NCC2CCCCC2)c1Cl` [I-109], the LogP is reported as 2.50[a].
For `Cc1c(N)nsc1C(=O)NCc1ccc(Cl)nc1` [I-110], the LogP was 1.09[a].
For `COc1ccc(CNc2nsc(C(=O)NC3CCc4ccccc43)c2Cl)cc1` (centres unmarked) [I-111], the LogP was 4.04[a].
For `COc1ccc(CNc2nsc(C(=O)NC(C)c3ccccc3Cl)c2Cl)cc1` (centres unmarked) [I-112], the LogP was 4.16[a].
